Measured values published in ChEMBL document CHEMBL2086381, “Identification of 4,5-dihydro-4-hydroxygeldanamycins as shunt products of geldanamycin biosynthesis” (J Nat Prod, 2012).
pIC50: −log10 of the molar value.

These compounds were tested on HepG2 (assay: Cytotoxicity against human HepG2 cells).
Assay type: functional, cell-based

`COC1=C2C[C@@H](C)C[C@H](OC)[C@H](O)[C@@H](C)/C=C(\C)[C@H](OC(N)=O)[C@@H](OC)C[C@@H](O)/C=C(\C)C(=O)NC(=CC1=O)C2=O` was tested. Which pIC50 did it give?
The pIC50 was 4.97.

`COC1=C2C[C@@H](C)C[C@H](OC)[C@H](O)[C@@H](C)/C=C(\C)[C@H](OC(N)=O)[C@@H](OC)C[C@H](O)/C=C(\C)C(=O)NC(=CC1=O)C2=O` was tested. Which pIC50 did it give?
Its pIC50 is 4.98.

`COC1=C2C[C@@H](C)C[C@H](OC)[C@H](O)[C@@H](C)/C=C(\C)[C@H](OC(N)=O)[C@@H](OC)/C=C\C=C(/C)C(=O)NC(=CC1=O)C2=O` [GELDANAMYCIN] was tested. Which pIC50 did it give?
Its pIC50 is 6.43.
